Assays:
[1] = Spontaneous hydrolysis of EM 12 in aqueous solution; assay type: physicochemical
[2] = Stability testing of the EM 12 solution over 2 weeks; assay type: physicochemical; conditions: after 2 weeks; 200 μg/ml in 5% glucose, pH 5.5, room temperature
Text: The solution was stored at room temperature. The pH of the final solution was 5.5.
Portions of the solutions were repeatedly taken as samples for analysis over a period of 2 weeks.

[3] = system: IL-12 production of LPS-activated monocytes; experiment: IL-12 production of LPS-activated monocytes (sandwich ELISA); assay type: cell-based; conditions: LPS-activated human monocytes
Procedure: (§1) In order to investigate the immunomodulatory efficacy of the solutions produced, human monocytes were isolated from peripheral blood mononuclear cells (PBMCs) and were activated with bacterial LPS (lipopolysaccharide). The concentration of TNF-α and IL-12 in the supernatant liquors from all cell cultures was determined by means of sandwich ELISAs (Biosource Europe, Fleurus, Belgium).

[4] = system: TNF-α production of LPS-activated monocytes; experiment: TNF-α production of LPS-activated monocytes (sandwich ELISA); assay type: cell-based; conditions: LPS-activated human monocytes
Procedure: as §1

[5] = Arch. Pharm. 321, 371 (1988); cited from earlier work
[6] = system: severe aphthous stomatitis; conditions: cited from earlier work
[7] = system: cutaneous lupus erythematodes, pyoderma gangrenosum, urogenital ulcers in Bechet's syndrome, ulcerations in those infected with HIV; conditions: without resulting in general immunosuppression; cited from earlier work

Compound | spontaneous hydrolysis ([1]; aqueous EM 12 solution, pH less than or equal to 5.5) | tendency to undergo spontaneous hydrolysis ([1]; aqueous solutions) | EM 12 present in solution after storage [2] | biological efficacy after storage [2] | IL-12 concentration in supernatant ([3]; EM 12 2 μg/ml) | IL-12 concentration in supernatant ([3]; EM 12 10 μg/ml) | TNF-α concentration in supernatant ([4]; EM 12 2 μg/ml) | TNF-α concentration in supernatant ([4]; EM 12 10 μg/ml) | solubility in water [5] | efficacy vs classical immunosuppressants [6] | efficacy [7]
O=C1CCC(N2Cc3ccccc3C2=O)C(=O)N1 (racemic) [EM 12, 3-(1-oxo-1,3-dihydroisoindol-2-yl)-piperidine-2,6-dione] | does not occur | tendency of EM 12 to undergo spontaneous hydrolysis | still present | retained its full biological efficacy | 528 pg/mL | 464 pg/mL | 9915 pg/mL | 9548 pg/mL | – | – | –
O=C1CCC(N2C(=O)c3ccccc3C2=O)C(=O)N1 (centres unmarked) [Thalidomide, 2-(2,6-dioxo-piperidin-3-yl)-isoindole-1,3-dione] | – | – | – | – | – | – | – | – | low | superior | good efficacy
